Experimental data: PubChem BioAssay AID330 (DTP/NCI, 2004)
“And” between values parts separate entries of the source, which are not always exact repeats. Identical values can stand only once. Toxic doses and inconclusive results are not listed.

System: P388 leukemia ip, CD2F1 mice, survival T/C
Assay: NCI In Vivo Anticancer Drug Screen. Data for tumor model P388 Leukemia (intraperitoneal) in CD2F1 (CDF1) mice
Settings: endpoint: median survival time, higher = longer survival
Procedure, shortened: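 Mice carrying the transplanted tumor received test compound or vehicle. Survival was recorded in each group, and the value is the treated-group measurement divided by that of the vehicle-treated control group.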

[1] = dose: 50.0 mg/kg/injection, schedule: Q01DX005 (ip), vehicle: saline with Tween-80
[2] = dose: 100.0 mg/kg/injection, schedule: Q01DX005 (ip), vehicle: saline with Tween-80
[3] = dose: 60.0 mg/kg/injection, schedule: Q01DX005 (ip), vehicle: Klucel (hydroxypropylcellulose) (HPC)
[4] = dose: 120.0 mg/kg/injection, schedule: Q01DX005 (ip), vehicle: Klucel (hydroxypropylcellulose) (HPC)
[5] = dose: 240.0 mg/kg/injection, schedule: Q01DX005 (ip), vehicle: Klucel (hydroxypropylcellulose) (HPC)
[6] = dose: 50.0 mg/kg/injection, schedule: Q01DX005 (ip), vehicle: Klucel (hydroxypropylcellulose) (HPC)
[7] = dose: 100.0 mg/kg/injection, schedule: Q01DX005 (ip), vehicle: Klucel (hydroxypropylcellulose) (HPC)
[8] = dose: 200.0 mg/kg/injection, schedule: Q01DX005 (ip), vehicle: Klucel (hydroxypropylcellulose) (HPC)
[9] = dose: 50.0 mg/kg/injection, schedule: Q01DX005 (ip), vehicle: saline
[10] = dose: 100.0 mg/kg/injection, schedule: Q01DX005 (ip), vehicle: saline
[11] = dose: 200.0 mg/kg/injection, schedule: Q01DX005 (ip), vehicle: saline
[12] = dose: 100.0 mg/kg/injection, schedule: Q04DX003 (ip), vehicle: saline with Tween-80
[13] = dose: 200.0 mg/kg/injection, schedule: Q04DX003 (ip), vehicle: saline with Tween-80
[14] = dose: 400.0 mg/kg/injection, schedule: Q04DX003 (ip), vehicle: saline with Tween-80
[15] = dose: 50.0 mg/kg/injection, schedule: Q01DX009 (ip), vehicle: saline
[16] = dose: 100.0 mg/kg/injection, schedule: Q01DX009 (ip), vehicle: saline
[17] = dose: 200.0 mg/kg/injection, schedule: Q01DX009 (ip), vehicle: saline

## O=c1[nH]nc(SCc2ccccc2)c2nncn12
[1]
  T/C: 97 % of control
[2]
  T/C: 92 % of control
dose: 200.0 mg/kg/injection, schedule: Q01DX005 (ip), vehicle: saline with Tween-80
  T/C: 95 % of control

## NP(N)(=O)NC(=O)c1ccc(F)cc1
[1]
  T/C: 100 % of control
[2]
  T/C: 100 % of control

## C=C(CCS(=O)c1ccccc1)CC(CC(=C)COC(C)=O)S(=O)(=O)c1ccccc1 (stereo not given)
[3]
  T/C: 99 % of control
[4]
  T/C: 99 % of control
[5]
  T/C: 98 % of control

## O=C1CC(c2ccccc2)=NN1c1ccccc1
[6]
  T/C: 101 % of control
[7]
  T/C: 99 % of control
[8]
  T/C: 95 % of control

## CN1c2ccccc2C2=C(C(=O)CCS2)S1(=O)=O
[9]
  T/C: 109 % of control
[10]
  T/C: 100 % of control
[11]
  T/C: 101 % of control

## CC(=O)Nc1ccc(Br)c(NC(C)=O)n1
[12]
  T/C: 104 % of control
[13]
  T/C: 104 % of control
[14]
  T/C: 109 % of control

## Cc1ccc(NC(=O)N(CCCl)N=O)cc1NC(=O)N(CCCl)N=O
dose: 0.1 mg/kg/injection, schedule: Q01DX009 (ip), vehicle: other
  T/C: 120 % of control
dose: 0.1 mg/kg/injection, schedule: Q01DX009 (ip), vehicle: saline + alcohol
  T/C: 116 % of control
dose: 0.25 mg/kg/injection, schedule: Q04DX003 (ip), vehicle: other
  T/C: 113 % of control
dose: 0.5 mg/kg/injection, schedule: Q04DX003 (ip), vehicle: other
  T/C: 118 % of control
dose: 0.75 mg/kg/injection, schedule: Q01DX009 (ip), vehicle: other
  T/C: 161 % of control
dose: 1.0 mg/kg/injection, schedule: Q01DX009 (ip), vehicle: other
  T/C: 159 % of control
dose: 1.0 mg/kg/injection, schedule: Q04DX003 (ip), vehicle: other
  T/C: 113 % of control
dose: 1.32 mg/kg/injection, schedule: Q01DX009 (ip), vehicle: saline with Tween-80
  T/C: 154 % of control
dose: 1.5 mg/kg/injection, schedule: Q01DX009 (ip), vehicle: other
  T/C: 175 % of control
dose: 2.0 mg/kg/injection, schedule: Q01DX009 (ip), vehicle: saline with Tween-80
  T/C: 181 % of control
dose: 2.0 mg/kg/injection, schedule: Q04DX003 (ip), vehicle: other
  T/C: 154 % of control
dose: 3.0 mg/kg/injection, schedule: Q01DX009 (ip), vehicle: other
  T/C: 221 % of control
dose: 3.0 mg/kg/injection, schedule: Q01DX009 (ip), vehicle: saline with Tween-80
  T/C: 155 % of control and 209 % of control
dose: 3.13 mg/kg/injection, schedule: Q01DX009 (ip), vehicle: other
  T/C: 177 % of control
dose: 4.5 mg/kg/injection, schedule: Q01DX009 (ip), vehicle: saline with Tween-80
  T/C: 245 % of control
dose: 6.25 mg/kg/injection, schedule: Q01DX009 (ip), vehicle: other
  T/C: 209 % of control
dose: 12.5 mg/kg/injection, schedule: Q01DX009 (ip), vehicle: other
  T/C: 222 % of control

## CC(C)(C)C1CCS(=O)(=O)CC1.[Cl][Hg][Cl]
dose: 0.25 mg/kg/injection, schedule: Q01DX009 (ip), vehicle: saline
  T/C: 109 % of control
dose: 0.5 mg/kg/injection, schedule: Q01DX009 (ip), vehicle: saline
  T/C: 95 % of control
dose: 1.0 mg/kg/injection, schedule: Q01DX009 (ip), vehicle: saline
  T/C: 90 % of control

## O=C(O)C(C1CCCCC1)C1(O)CCCCCC1 (stereo not given)
[6]
  T/C: 97 % of control
[7]
  T/C: 103 % of control
[8]
  T/C: 100 % of control

## Cc1ccc(N2CCCCN(c3ccc(C)cc3)/C(c3ccccc3)=C\2c2ccccc2)cc1
dose: 100.0 mg/kg/injection, schedule: Q01DX001 (ip), vehicle: Klucel (hydroxypropylcellulose) (HPC)
  T/C: 91 % of control
dose: 200.0 mg/kg/injection, schedule: Q01DX001 (ip), vehicle: Klucel (hydroxypropylcellulose) (HPC)
  T/C: 91 % of control
dose: 400.0 mg/kg/injection, schedule: Q01DX001 (ip), vehicle: Klucel (hydroxypropylcellulose) (HPC)
  T/C: 101 % of control and 91 % of control

## CCOC(=O)C(CCCCC(NC(C)=O)(C(=O)OCC)C(=O)OCC)(NC(C)=O)C(=O)OCC
[12]
  T/C: 100 % of control
[13]
  T/C: 100 % of control
[14]
  T/C: 95 % of control

## CCCCNC(=O)Nc1ccc(C(=O)OCCCC)cc1
[12]
  T/C: 100 % of control
[13]
  T/C: 90 % of control

## CC1(C)SC(C)(c2ccc[nH]2)N(c2nccs2)C1=O (stereo not given)
[3]
  T/C: 106 % of control
[4]
  T/C: 104 % of control
[5]
  T/C: 102 % of control

## Cc1ccc2nc(/N=C/c3ccc(N(C)C)cc3)sc2c1
dose: 100.0 mg/kg/injection, schedule: Q04DX003 (ip), vehicle: saline
  T/C: 109 % of control
dose: 200.0 mg/kg/injection, schedule: Q04DX003 (ip), vehicle: saline
  T/C: 107 % of control
dose: 400.0 mg/kg/injection, schedule: Q04DX003 (ip), vehicle: saline
  T/C: 101 % of control

## CCCCNC(C)[C@]1(O)Cc2c(O)c3c(c(O)c2[C@@H](OC2CC(N)C(O)C(C)O2)C1)C(=O)c1c(OC)cccc1C3=O (stereo not given in full)
dose: 1.25 mg/kg/injection, schedule: Q01DX009 (ip), vehicle: water
  T/C: 154 % of control
dose: 2.5 mg/kg/injection, schedule: Q01DX009 (ip), vehicle: water
  T/C: 152 % of control and 170 % of control
dose: 5.0 mg/kg/injection, schedule: Q01DX009 (ip), vehicle: water
  T/C: 176 % of control and 190 % of control
dose: 10.0 mg/kg/injection, schedule: Q01DX009 (ip), vehicle: water
  T/C: 99 % of control

## O=C(NC(CO)C(=O)O)c1ccccc1 (stereo not given)
[9]
  T/C: 100 % of control
[10]
  T/C: 100 % of control
[11]
  T/C: 100 % of control

## C=CB(OCCC)OCCC
[15]
  T/C: 92 % of control
[16]
  T/C: 92 % of control
[17]
  T/C: 88 % of control

## C[CH2][Pb]([CH2]C)([CH2]C)[O]C(=O)COc1ccccc1
dose: 1.5 mg/kg/injection, schedule: Q04DX003 (ip), vehicle: Klucel (hydroxypropylcellulose) (HPC)
  T/C: 100 % of control
dose: 3.0 mg/kg/injection, schedule: Q04DX003 (ip), vehicle: Klucel (hydroxypropylcellulose) (HPC)
  T/C: 100 % of control
dose: 6.0 mg/kg/injection, schedule: Q04DX003 (ip), vehicle: Klucel (hydroxypropylcellulose) (HPC)
  T/C: 106 % of control

## COCCn1cc(F)c(=O)[nH]c1=O
dose: 30.0 mg/kg/injection, schedule: Q04DX002 (ip), vehicle: saline
  T/C: 110 % of control
dose: 60.0 mg/kg/injection, schedule: Q04DX002 (ip), vehicle: saline
  T/C: 104 % of control
dose: 100.0 mg/kg/injection, schedule: Q04DX002 (ip), vehicle: saline
  T/C: 115 % of control and 121 % of control
dose: 120.0 mg/kg/injection, schedule: Q04DX002 (ip), vehicle: saline
  T/C: 119 % of control
dose: 200.0 mg/kg/injection, schedule: Q04DX002 (ip), vehicle: saline
  T/C: 121 % of control
dose: 240.0 mg/kg/injection, schedule: Q04DX002 (ip), vehicle: saline
  T/C: 121 % of control
dose: 400.0 mg/kg/injection, schedule: Q04DX002 (ip), vehicle: saline
  T/C: 118 % of control and 121 % of control

## CCOC(=O)NOC1CCCCO1 (stereo not given)
[15]
  T/C: 91 % of control
[16]
  T/C: 105 % of control
[17]
  T/C: 104 % of control

## COc1ccc2c(c1)Oc1c(Cl)c3c(c(Cl)c1=N2)Oc1cc(OC)ccc1N=3
dose: 100.0 mg/kg/injection, schedule: Q01DX001 (ip), vehicle: saline with Tween-80
  T/C: 89 % of control
dose: 200.0 mg/kg/injection, schedule: Q01DX001 (ip), vehicle: saline with Tween-80
  T/C: 89 % of control
dose: 400.0 mg/kg/injection, schedule: Q01DX001 (ip), vehicle: saline with Tween-80
  T/C: 115 % of control
